These results are taken from patent US20250120927A1, “CNDP2 MODULATORS AND METHODS FOR THEIR USE” (Metabolon Inc., priority 2023, published 2025).

Structures are written as SMILES. Counter-ions that a name gives are not always drawn.

Sequence of CNDP2 (Q96KP4 whole entry): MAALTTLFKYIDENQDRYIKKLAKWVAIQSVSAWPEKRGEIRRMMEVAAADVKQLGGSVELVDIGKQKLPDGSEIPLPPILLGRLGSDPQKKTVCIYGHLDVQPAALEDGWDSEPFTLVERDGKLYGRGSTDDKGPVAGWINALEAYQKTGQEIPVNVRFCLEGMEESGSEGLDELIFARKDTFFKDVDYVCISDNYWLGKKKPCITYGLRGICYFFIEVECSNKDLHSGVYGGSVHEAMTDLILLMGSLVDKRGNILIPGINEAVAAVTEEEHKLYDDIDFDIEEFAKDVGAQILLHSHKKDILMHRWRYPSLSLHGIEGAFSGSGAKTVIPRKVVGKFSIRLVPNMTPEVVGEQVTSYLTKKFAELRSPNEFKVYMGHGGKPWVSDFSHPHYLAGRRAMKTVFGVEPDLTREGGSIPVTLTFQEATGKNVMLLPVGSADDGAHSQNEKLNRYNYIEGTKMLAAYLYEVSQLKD

One assay concerns the target CNDP2 (Homo sapiens (Human), UniProt Q96KP4). The experiment in a line: CNDP2 enzyme inhibition assay (Met-His hydrolysis, free histidine by o-phthaldialdehyde fluorescence), dose-response. Format: biochemical. Conditions: 50 nM purified CNDP2 (Sino Biological), 1 mM Met-His substrate, 30 minutes at 37° C.; TABLE 1. The protocol:
To identify optimal conditions for identifying novel inhibitors of CNDP2, enzyme assays were performed with varied sources of purified enzyme, concentrations of enzyme, peptide substrates, concentrations of peptide substrates and metal cofactors. […] The reaction mixture was incubated for 30 minutes at 37° C. before it was quenched with an equal volume of 1% TCA. Free histidine was quantified after derivatization with a fluorophore (o-phthaldialdehyde from Sigma-Aldrich, excitation 340 nm, emission 460 nm). The reaction was conducted in an automation-friendly format to meet future screening throughput demands. A histidine titration standard curve was also included to enable conversion of fluorescence signal to molar concentration of histidine released by the hydrolysis reaction and to ensure the linearity of the fluorescence signal vs. free histidine.
Compounds of Formula (I) disclosed herein were screened for potency in inhibiting CNDP2 enzyme activity in a dose-response experiment. Bestatin was included with each batch of test molecules as a benchmark for assay quality control.
Usually IC50 stands for the concentration that inhibits the measured activity by half. The low end stands for greater potency, the high end for weaker potency. Turning to `CC(C)C[C@H](NC(=O)[C@@H](O)[C@H](N)Cc1ccccc1Br)C(=O)O` [Compound 40], the IC50 was ≥ 1000 nM.
Same read-out and setting: the figure for `N[C@H](Cc1ccc(Cl)cc1)[C@H](O)C(=O)N[C@H](C(=O)O)c1cccc(C(F)(F)F)c1` [Compound 49] is < 100 nM; for `N[C@H](Cc1ccccc1)[C@H](O)C(=O)NC(C(=O)NO)c1cccc(C(F)(F)F)c1` (stereo partly drawn) [Compound 45] it is 100 to 1000 nM.
Consider `N[C@H](Cc1ccccc1)[C@H](O)C(=O)N[C@H](C(=O)O)c1cccc(OC(F)(F)F)c1` [Compound 31, (S)-2-((2S,3R)-3-amino-2-hydroxy-4-phenylbutanamido)-2-(3-(trifluoromethoxy)phenyl)acetic acid], for which the IC50 was < 100 nM.
The same measure, in the same setting: as for `N[C@H](Cc1ccccc1)[C@H](O)C(=O)N[C@@H](C(=O)O)c1cccc(C(F)(F)F)c1` [Compound 35], the figure is ≥ 1000 nM; as for `N[C@H](Cc1ccccc1)[C@H](O)C(=O)NC(C(=O)O)c1cccc(C(F)(F)F)c1` (stereo partly drawn) [Compound 10, 2-[[(2S,3R)-3-amino-2-hydroxy-4-phenyl-butanoyl]amino]-2-[3-(trifluoromethyl)phenyl]acetic acid], < 100 nM; as for `CC(C)C[C@H](NC(=O)[C@@H](O)[C@H](N)Cc1ccc(Br)cc1)C(=O)O` [Compound 39], ≥ 1000 nM.
Same read-out and setting: the figure for `N[C@H](Cc1ccccc1)[C@H](O)C(=O)N[C@H](C(=O)O)C1CCCCC1` [Compound 5, (2S)-2-[[(2S,3R)-3-amino-2-hydroxy-4-phenyl-butanoyl]amino]-2-cyclohexyl-acetic acid] is 100 to 1000 nM; for `N[C@H](Cc1ccccc1)[C@H](O)C(=O)N[C@H](C(=O)O)C1CCOCC1` [Compound 21, 2-[[(2S,3R)-3-amino-2-hydroxy-4-phenyl-butanoyl]amino]-2-tetrahydropyran-4-yl-acetic acid] it is ≥ 1000 nM.
Still for that read-out and setting: the figure for `N[C@H](Cc1ccccc1)[C@H](O)C(=O)NC1(C(=O)O)CCCC1` [Compound 15, 1-[[(2S,3R)-3-amino-2-hydroxy-4-phenyl-butanoyl]amino]cyclopentane carboxylic acid] is ≥ 1000 nM; for `CC(C)C[C@H](NC(=O)[C@@H](O)[C@H](N)Cc1cccc(Br)c1)C(=O)O` [Compound 41] it is ≥ 1000 nM.
As for `N[C@H](Cc1ccccc1)[C@H](O)C(=O)NC(C(=O)O)C1CCNCC1` (stereo partly drawn) [Compound 29], the IC50 is ≥ 1000 nM.

Still in this assay, the particulars now being: 50 nM purified CNDP2 (Sino Biological), 1 mM Met-His substrate, 30 minutes at 37° C.; TABLE 2.
Take `C[C@@](NC(=O)[C@@H](O)[C@H](N)Cc1ccccc1)(C(=O)O)c1cccc(OC(F)(F)F)c1` [Compound 88, (S)-2-((2S,3R)-3-amino-2-hydroxy-4-phenylbutanamido)-2-(3-(trifluoromethoxy)phenyl)propanoic acid]: the IC50 is ≥ 1000 nM.
Still for that read-out and setting: the figure for `N[C@H](Cc1ccccc1)[C@H](O)C(=O)NC(CN1CCC(F)(F)CC1)C(=O)O` (stereo partly drawn) [Compound 72] is ≥ 1000 nM; for `N[C@H](Cc1ccccc1)[C@H](O)C(=O)N[C@@H](C(=O)O)c1cc(F)cc(OC(F)(F)F)c1` [Compound 102, (R)-2-((2S,3R)-3-amino-2-hydroxy-4-phenylbutanamido)-2-(3-fluoro-5-(trifluoromethoxy)phenyl)acetic acid] it is ≥ 1000 nM.
Still for that read-out and setting: as for `N[C@H](Cc1ccccc1)[C@H](O)C(=O)N[C@@H](C(=O)O)c1ccc(F)c(C(F)(F)F)c1` [Compound 94, (R)-2-((2S,3R)-3-amino-2-hydroxy-4-phenylbutanamido)-2-(4-fluoro-3-(trifluoromethyl)phenyl)acetic acid], the figure is < 100 nM; as for `N[C@H](Cc1ccccc1)[C@H](O)C(=O)NC(c1cccc(C(F)(F)F)c1)c1noc(=O)[nH]1` (stereo partly drawn) [Compound 71], 100 to 1000 nM; as for `N[C@H](Cc1ccccc1)[C@H](O)C(=O)N[C@H](C(=O)O)c1cccc(C(F)(F)F)c1Cl` [Compound 87, (S)-2-((2S,3R)-3-amino-2-hydroxy-4-phenylbutanamido)-2-(2-chloro-3-(trifluoromethyl)phenyl)acetic acid], 100 to 1000 nM.
On the same count and under the same terms, the figure for `C[C@](NC(=O)[C@@H](O)[C@H](N)Cc1ccccc1)(C(=O)O)c1cccc(OC(F)(F)F)c1` [Compound 89, (R)-2-((2S,3R)-3-amino-2-hydroxy-4-phenylbutanamido)-2-(3-(trifluoromethoxy)phenyl)propanoic acid] is ≥ 1000 nM; for `N[C@H](Cc1ccccc1)[C@H](O)C(=O)NC(c1cccc(C(F)(F)F)c1)C(F)(F)C(=O)O` (stereo partly drawn) [Compound 64] it is ≥ 1000 nM; for `N[C@H](Cc1ccc(C(F)(F)F)cc1)[C@H](O)C(=O)N[C@H](C(=O)O)c1cccc(OC(F)(F)F)c1` [Compound 133] it is ≥ 1000 nM.
Take `N[C@H](Cc1ccccc1)[C@H](O)C(=O)N[C@@H](C(=O)O)c1ccc(Br)c(OC(F)(F)F)c1` [Compound 110, (R)-2-((2S,3R)-3-amino-2-hydroxy-4-phenylbutanamido)-2-(4-bromo-3-(trifluoromethoxy)phenyl)acetic acid hydrochloride]: the IC50 is ≥ 1000 nM.
Still for that read-out and setting: as for `N[C@H](Cc1ccccc1)[C@H](O)C(=O)NC(C(=O)O)c1cc(C(F)(F)F)ccc1F` (stereo partly drawn) [Compound 67], the figure is ≥ 1000 nM; as for `N[C@H](Cc1ccccc1)[C@H](O)C(=O)N[C@@H](Cc1ccc(C(F)(F)F)c(Cl)c1)C(=O)O` [Compound 100], 100 to 1000 nM.
